Consider 25 compounds from patent publication US20170121315A1, “HETEROBICYCLICALLY SUBSTITUTED 4-OXOBUTANE ACID DERIVATIVES AND USE THEREOF” (priority 2014, published 2017).

Each structure is given as a SMILES string.

The target of the assay is T1, human macrophage elastase (HME/hMMP-12) (Homo sapiens, UniProt P39900).
T1 construct: purchased R&D Systems 917-MP
T1 sequence (P39900 106-470): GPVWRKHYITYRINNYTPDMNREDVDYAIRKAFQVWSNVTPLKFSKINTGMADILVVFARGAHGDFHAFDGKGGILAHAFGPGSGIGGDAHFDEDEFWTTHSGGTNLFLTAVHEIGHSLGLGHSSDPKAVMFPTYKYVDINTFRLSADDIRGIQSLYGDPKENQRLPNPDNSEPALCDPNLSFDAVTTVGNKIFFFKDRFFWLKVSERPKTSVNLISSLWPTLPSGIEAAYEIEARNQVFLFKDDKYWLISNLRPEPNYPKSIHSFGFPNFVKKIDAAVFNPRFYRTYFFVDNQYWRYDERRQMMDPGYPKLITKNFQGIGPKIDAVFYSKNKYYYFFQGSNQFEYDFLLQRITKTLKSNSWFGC
Description: In vitro HME inhibition test (standard or high-sensitivity). It counts as biochemical. To be noted: in some cases mean values, rounded to two significant figures. On the procedure: The potency of the compounds according to the invention with respect to HME (MMP-12) is determined in an in vitro inhibition test. The HME-mediated amidolytic cleavage of a suitable peptide substrate leads to an increase in fluorescent light therein. The signal intensity of the fluorescent light is directly proportional to the enzyme activity. The active concentration of a test compound at which half the enzyme is inhibited (50% signal intensity of the fluorescent light) is reported as the IC50 value.
In a 384 hole microtiter plate, in a total test volume of 41 μl, the test buffer (0.1 M HEPES pH 7.4, 0.15 M NaCl, 0.03 M CaCl2, 0.004 mM ZnCl2, 0.02 M EDTA, 0.005% Brij®), the enzyme (0.5 nM HME; R&D Systems, 917-MP, autocatalytic activation according to the manufacturer's instructions) and the intramolecularly quenched substrate [5 μM Mca-Pro-Leu-Gly-Leu-Glu-Glu-Ala-Dap(Dnp)-NH2; Bachem, M-2670] are incubated in the absence and presence of the test substance (as a solution in DMSO) at 37° C. for two hours. The fluorescence intensity of the test mixtures is measured (excitation […], emission 393 nm). The IC50 values are ascertained by plotting the fluorescent light intensity against the active ingredient concentration.
In this case, an enzyme concentration ten times lower is used (final concentration, e.g. 0.05 nM) in order to achieve an increased test sensitivity. The incubation period chosen for the test is correspondingly longer (e.g. 16 hours).
Broadly, the IC50 is the concentration needed to halve the response being measured. A higher IC50 goes with a need for much substance. In turn, `O=C(CC(CCn1nnc2ccccc2c1=O)C(=O)O)c1cc2cc(OCc3ccc(F)cc3)ccc2o1` (racemic) [Example 22, (+/−)-4-{5-[(4-Fluorobenzyl)oxy]-1-benzofur-2-yl}-4-oxo-2-[2-(4-oxo-1,2,3-benzotriazin-3(4H)-yl)ethyl]butanoic acid] gave an IC50 of 2.5 nM.
The compound `CCCCOc1ccc2cc(C(=O)CC(CCn3nnc4ccccc4c3=O)C(=O)O)oc2c1` (single isomer, unassigned; (-)) [Example 62, (−)-4-(6-Butoxy-1-benzofur-2-yl)-4-oxo-2-[2-(4-oxo-1,2,3-benzotriazin-3(4H)-yl)ethyl]butanoic acid] registered a concentration for half-maximal inhibition (IC50) of 570 nM.
As for `O=C(CC(CCn1nnc2ccccc2c1=O)C(=O)O)c1cc2cc(OCc3cc(F)ccc3F)ccc2o1` (racemic) [Example 49, (+/−)-4-{5-[(2,5-Difluorobenzyl)oxy]-1-benzofur-2-yl}-4-oxo-2-[2-(4-oxo-1,2,3-benzotriazin-3(4H)-yl)ethyl]butanoic acid], the figure is 0.55 nM; as for `CCCCCCOc1ccc2cc(C(=O)CC(CCn3nnc4ccccc4c3=O)C(=O)O)oc2c1` (single isomer, unassigned; (-)) [Example 65, (−)-4-[6-(Hexyloxy)-1-benzofur-2-yl]-4-oxo-2-[2-(4-oxo-1,2,3-benzotriazin-3(4H)-yl)ethyl]butanoic acid], 340 nM.
For `O=C(CC(CCn1nnc2ccccc2c1=O)C(=O)O)c1cc2ccc(OCc3ccc(F)cc3)cc2s1` (racemic) [Example 125, (+/−)-4-{6-[(4-Fluorobenzyl)oxy]-1-benzothiophen-2-yl}-4-oxo-2-[2-(4-oxo-1,2,3-benzotriazin-3(4H)-yl)ethyl]butanoic acid], the IC50 turned out to be 4 nM.
`CCCCCCCOc1ccc2cc(C(=O)CC(CCn3nnc4ccccc4c3=O)C(=O)O)oc2c1` (racemic) [Example 67, (+/−)-4-[6-(Heptyloxy)-1-benzofur-2-yl]-4-oxo-2-[2-(4-oxo-1,2,3-benzotriazin-3(4H)-yl)ethyl]butanoic acid] gave a 50% inhibitory concentration (IC50) of 3.8 nM.
As to `O=C(CC(CCn1nnc2ccccc2c1=O)C(=O)O)c1cc2cc(OCCCC(F)(F)F)ccc2o1` (single isomer, unassigned; enantiomer 1) [Example 12, (−)-4-Oxo-2-[2-(4-oxo-1,2,3-benzotriazin-3(4H)-yl)ethyl]-4-[5-(4,4,4-trifluorobutoxy)-1-benzofur-2-yl]butanoic acid (enantiomer 1)], the IC50 stood at 900 nM.
Compound `O=C(CC(CCn1nnc2ccccc2c1=O)C(=O)O)c1cc2cc(OCC3(F)CCOCC3)ccc2o1` (racemic) [Example 14, (+/−)-4-{5-[(4-Fluorotetrahydro-2H-pyran-4-yl)methoxy]-1-benzofur-2-yl}-4-oxo-2-[2-(4-oxo-1,2,3-benzotriazin-3(4H)-yl)ethyl]butanoic acid] yielded a half-inhibitory concentration (IC50) of 0.65 nM.
In turn, `O=C(CC(CCn1nnc2ccc(C(F)(F)F)cc2c1=O)C(=O)O)c1cc2ccc(OCC3CC3)cc2s1` (single isomer, unassigned; enantiomer 1) [Example 129, 4-[6-(Cyclopropylmethoxy)-1-benzothiophen-2-yl]-4-oxo-2-{2-[4-oxo-6-(trifluoromethyl)-1,2,3-benzotriazin-3(4H)-yl]ethyl}butanoic acid (enantiomer 1)] gave an IC50 of 13 nM.
On to `O=C(O)[C@@H]1[C@@H](Cn2nnc3ccc(C(F)(F)F)cc3c2=O)CC[C@H]1C(=O)c1cc2cc(OCCc3ccccc3)ccc2o1` (single isomer, unassigned; enantiomer 1) [Example 158, (−)-(1RS,2SR,5RS)-2-{[4-Oxo-6-(trifluoromethyl)-1,2,3-benzotriazin-3(4H)-yl]methyl}-5-{[5-(2-phenylethoxy)-1-benzofur-2-yl]carbonyl}cyclopentanecarboxylic acid (enantiomer 1)], for which the IC50 is 260 nM.
Compound `O=C(CC(CCn1nnc2ccccc2c1=O)C(=O)O)c1coc2cc(OCC3CCOCC3)ccc12` (single isomer, unassigned; (-)) [Example 97, (−)-4-Oxo-2-[2-(4-oxo-1,2,3-benzotriazin-3(4H)-yl)ethyl]-4-[6-(tetrahydro-2H-pyran-4-ylmethoxy)-1-benzofur-3-yl]butanoic acid] gave an IC50 of 25 nM.
Turning to `CCCCOc1ccc2cc(C(=O)CC(CCn3nnc4ccccc4c3=O)C(=O)O)sc2c1` (racemic) [Example 126, (+/−)-4-(6-Butoxy-1-benzothiophen-2-yl)-4-oxo-2-[2-(4-oxo-1,2,3-benzotriazin-3(4H)-yl)ethyl]butanoic acid], inhibition was half-maximal at 2.9 nM (IC50).
`CCCCOc1ccc2c(C(=O)CC(CCn3nnc4ccccc4c3=O)C(=O)O)coc2c1` (single isomer, unassigned; (+)) [Example 108, (+)-4-(6-Butoxy-1-benzofur-3-yl)-4-oxo-2-[2-(4-oxo-1,2,3-benzotriazin-3(4H)-yl)ethyl]butanoic acid] returned a half-inhibitory concentration (IC50) of 0.23 nM.
`O=C(CC(CCn1nnc2ccccc2c1=O)C(=O)O)c1noc2cc(OCC3CCCC3)ccc12` (racemic) [Example 152, (+/−)-4-[6-(Cyclopentylmethoxy)-1,2-benzoxazol-3-yl]-4-oxo-2-[2-(4-oxo-1,2,3-benzotriazin-3(4H)-yl)ethyl]butanoic acid]: the half-inhibitory concentration (IC50) turned out to be 1.4 nM.
`O=C(CC(CCn1nnc2ccccc2c1=O)C(=O)O)c1coc2cc(OCc3ccccc3)ccc12` (racemic) [Example 84, (+/−)-4-[6-(Benzyloxy)-1-benzofur-3-yl]-4-oxo-2-[2-(4-oxo-1,2,3-benzotriazin-3(4H)-yl)ethyl]butanoic acid] gave an IC50 of 4 nM.
As for `O=C(CC(CCn1nnc2ccccc2c1=O)C(=O)O)c1coc2cc(OCC3CCCC3)ccc12` (single isomer, unassigned; (-)) [Example 79, (−)-4-[6-(Cyclopentylmethoxy)-1-benzofur-3-yl]-4-oxo-2-[2-(4-oxo-1,2,3-benzotriazin-3(4H)-yl)ethyl]butanoic acid], the figure is 1900 nM; as for `CCCCCCCOc1ccc2c(C(=O)CC(CCn3nnc4ccccc4c3=O)C(=O)O)coc2c1` (single isomer, unassigned; (-)) [Example 102, (−)-4-[6-(Heptyloxy)-1-benzofur-3-yl]-4-oxo-2-[2-(4-oxo-1,2,3-benzotriazin-3(4H)-yl)ethyl]butanoic acid], 2100 nM; as for `CC(C)COc1ccc2c(C(=O)CC(CCn3nnc4ccccc4c3=O)C(=O)O)coc2c1` (single isomer, unassigned; (+)) [Example 105, (+)-4-(6-Isobutoxy-1-benzofur-3-yl)-4-oxo-2-[2-(4-oxo-1,2,3-benzotriazin-3(4H)-yl)ethyl]butanoic acid], 0.21 nM.
Consider `O=C(CC(CCn1nnc2ccccc2c1=O)C(=O)O)c1cc2cc(OCc3ccc(F)cc3)ccc2o1` (single isomer, unassigned; (-)) [Example 24, (−)-4-{5-[(4-Fluorobenzyl)oxy]-1-benzofur-2-yl}-4-oxo-2-[2-(4-oxo-1,2,3-benzotriazin-3(4H)-yl)ethyl]butanoic acid], for which 210 nM corresponded to half-maximal inhibition (IC50).
As for `CCCCOc1ccc2cc(C(=O)CC(CCn3nnc4ccccc4c3=O)C(=O)O)oc2c1` (single isomer, unassigned; (+)) [Example 63, (+)-4-(6-Butoxy-1-benzofur-2-yl)-4-oxo-2-[2-(4-oxo-1,2,3-benzotriazin-3(4H)-yl)ethyl]butanoic acid], half-maximal inhibition (IC50) required 2.2 nM.
As for `O=C(CC(CCn1nnc2ccccc2c1=O)C(=O)O)c1noc2cc(OCCC3CCCCC3)ccc12` (single isomer, unassigned; enantiomer 2) [Example 143, (+)-4-[6-(2-Cyclohexylethoxy)-1,2-benzoxazol-3-yl]-4-oxo-2-[2-(4-oxo-1,2,3-benzotriazin-3(4H)-yl)ethyl]butanoic acid (enantiomer 2)], the figure is 0.019 nM.
As for `CCCOc1ccc2cc(C(=O)CC(CCn3nnc4ccccc4c3=O)C(=O)O)sc2c1` (racemic) [Example 116, (+/−)-4-Oxo-2-[2-(4-oxo-1,2,3-benzotriazin-3(4H)-yl)ethyl]-4-(6-propoxy-1-benzothiophen-2-yl)butanoic acid], the figure is 4.2 nM; as for `O=C(CC(CCn1nnc2ccc(C(F)(F)F)cc2c1=O)C(=O)O)c1cc2ccc(OCC3CC3)cc2s1` (racemic) [Example 128, (+/−)-4-[6-(Cyclopropylmethoxy)-1-benzothiophen-2-yl]-4-oxo-2-{2-[4-oxo-6-(trifluoromethyl)-1,2,3-benzotriazin-3(4H)-yl]ethyl}butanoic acid], 1.1 nM; as for `O=C(CC(CCn1nnc2ccccc2c1=O)C(=O)O)c1cc2ccc(OCc3ccncc3)cc2s1` (racemic) [Example 123, (+/−)-4-Oxo-2-[2-(4-oxo-1,2,3-benzotriazin-3(4H)-yl)ethyl]-4-[6-(pyridin-4-ylmethoxy)-1-benzothiophen-2-yl]butanoic acid], 2.7 nM.
In turn, `CC(C)CCCCOc1ccc2cc(C(=O)CC(CCn3nnc4ccccc4c3=O)C(=O)O)oc2c1` (racemic) [Example 72, (+/−)-4-{6-[(5-Methylhexyl)oxy]-1-benzofur-2-yl}-4-oxo-2-[2-(4-oxo-1,2,3-benzotriazin-3(4H)-yl)ethyl]butanoic acid] yielded an IC50 of 3.1 nM.
